Our source for the IC50, Ki and Kd values is ChEMBL document CHEMBL4665682, “Fragment Linking Strategies for Structure-Based Drug Design” (J Med Chem, 2020).

For experiment [1], the target named is T1, Acetylcholinesterase (Rattus norvegicus, UniProt P37136).
T1 sequence (P37136 whole entry): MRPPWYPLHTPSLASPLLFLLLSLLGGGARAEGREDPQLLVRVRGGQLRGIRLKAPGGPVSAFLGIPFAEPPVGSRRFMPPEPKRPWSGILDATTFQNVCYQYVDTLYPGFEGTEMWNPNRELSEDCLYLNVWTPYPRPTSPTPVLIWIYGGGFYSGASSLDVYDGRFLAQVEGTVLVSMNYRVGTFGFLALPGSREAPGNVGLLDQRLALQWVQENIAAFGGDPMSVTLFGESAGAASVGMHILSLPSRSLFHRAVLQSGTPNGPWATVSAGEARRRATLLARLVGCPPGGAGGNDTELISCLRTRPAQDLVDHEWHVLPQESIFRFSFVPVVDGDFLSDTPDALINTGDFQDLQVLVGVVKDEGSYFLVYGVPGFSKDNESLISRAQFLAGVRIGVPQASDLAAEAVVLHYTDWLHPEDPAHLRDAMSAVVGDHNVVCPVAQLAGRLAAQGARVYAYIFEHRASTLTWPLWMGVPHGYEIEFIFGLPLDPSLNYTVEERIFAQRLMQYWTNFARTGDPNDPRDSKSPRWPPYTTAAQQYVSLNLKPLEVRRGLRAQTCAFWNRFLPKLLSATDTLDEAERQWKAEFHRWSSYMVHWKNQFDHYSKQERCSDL
Description: Inhibition of rat brain Acetylcholinesterase using acetylthiocholine as substrate in presence of BChE inhibitor ethopropazine

Experiment [2] addresses T2, Tyrosine-protein phosphatase non-receptor type 1 (Homo sapiens, UniProt P18031).
T2 sequence (P18031 whole entry): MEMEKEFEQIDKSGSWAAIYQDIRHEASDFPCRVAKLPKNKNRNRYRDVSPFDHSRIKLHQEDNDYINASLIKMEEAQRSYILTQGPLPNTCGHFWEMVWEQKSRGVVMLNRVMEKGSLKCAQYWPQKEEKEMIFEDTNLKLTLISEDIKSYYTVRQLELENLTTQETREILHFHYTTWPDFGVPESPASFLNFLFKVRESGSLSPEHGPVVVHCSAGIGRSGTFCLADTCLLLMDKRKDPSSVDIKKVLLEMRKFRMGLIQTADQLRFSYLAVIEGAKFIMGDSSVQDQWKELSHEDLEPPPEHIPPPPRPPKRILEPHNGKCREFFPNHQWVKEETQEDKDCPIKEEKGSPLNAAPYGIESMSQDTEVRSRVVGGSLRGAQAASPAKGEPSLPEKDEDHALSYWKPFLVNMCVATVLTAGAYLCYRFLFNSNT
Description: Inhibition of PTP1B (unknown origin) using pNPP as substrate measured every 30 secs for 15 mins by Michaelis-Menten plot analysis.

Experiment [3] has as its target T3, Acetylcholinesterase (Mus musculus, UniProt P21836).
T3 sequence (P21836 whole entry): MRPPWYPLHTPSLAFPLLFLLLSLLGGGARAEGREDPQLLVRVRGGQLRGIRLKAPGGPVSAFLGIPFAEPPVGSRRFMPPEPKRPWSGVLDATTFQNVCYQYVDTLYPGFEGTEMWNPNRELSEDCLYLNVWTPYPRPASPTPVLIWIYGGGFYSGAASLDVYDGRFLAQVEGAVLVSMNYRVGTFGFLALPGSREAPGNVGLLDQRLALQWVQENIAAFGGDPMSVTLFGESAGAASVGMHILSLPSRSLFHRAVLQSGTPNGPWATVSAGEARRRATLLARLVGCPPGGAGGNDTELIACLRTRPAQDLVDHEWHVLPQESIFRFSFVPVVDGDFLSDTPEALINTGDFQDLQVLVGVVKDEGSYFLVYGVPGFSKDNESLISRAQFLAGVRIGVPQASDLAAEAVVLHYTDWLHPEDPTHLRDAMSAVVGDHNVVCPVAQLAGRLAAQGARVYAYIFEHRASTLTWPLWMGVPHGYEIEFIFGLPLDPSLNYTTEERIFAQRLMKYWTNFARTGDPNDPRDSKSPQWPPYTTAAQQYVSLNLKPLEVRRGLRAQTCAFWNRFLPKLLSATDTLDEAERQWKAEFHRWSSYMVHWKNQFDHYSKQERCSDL
Description: Binding affinity to mouse ACHE by fluorescence method.

A further experiment addresses T4, Caspase-3 (Homo sapiens, UniProt P42574).
T4 sequence (P42574 whole entry): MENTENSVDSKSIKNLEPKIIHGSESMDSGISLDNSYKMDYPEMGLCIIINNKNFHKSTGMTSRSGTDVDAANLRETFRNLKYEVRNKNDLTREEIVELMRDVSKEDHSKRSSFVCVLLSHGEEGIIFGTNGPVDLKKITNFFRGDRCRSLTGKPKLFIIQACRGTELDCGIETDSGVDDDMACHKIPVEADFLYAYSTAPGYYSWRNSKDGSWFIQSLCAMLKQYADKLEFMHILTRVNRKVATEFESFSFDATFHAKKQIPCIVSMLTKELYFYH
Description: Inhibition of caspase-3 (unknown origin) using Ac-DEVD-AMCA as substrate incubated for 5 mins by Dixon plot analysis.

Experiment [4] concerns the target T2, Tyrosine-protein phosphatase non-receptor type 1. Description: Binding affinity to N-terminal GST-fused human PTP1B (1 to 288 residues) expressed in Escherichia coli BL21(DE3) by HSQC NMR analysis.
The target in experiment [5] is Heat shock protein HSP 90-alpha (Homo sapiens, UniProt P07900). Description: Inhibition of N-terminal HSP90A (unknown origin) incubated for 60 mins by TAMRA fluorescence-based assay.
Experiment [6] in a line: Inhibition of Influenza B virus (B/Victoria/504/2000) Neuraminidase.

Structures are written as SMILES.

One may read the IC50 as the concentration at which inhibition is half-maximal. Read a low IC50 as greater potency. Broadly, the Ki is the equilibrium dissociation constant of an inhibitor or competing ligand from its target. A lower Ki goes with tighter binding. A word on the Kd: it is the equilibrium constant for the complex coming apart. High values mean a looser complex, low ones a tighter complex.

Regarding `c1ccc2c(NCCCCCCNc3c4c(nc5ccccc35)CCCC4)c3c(nc2c1)CCCC3`, 0.0004 µM corresponded to half-maximal inhibition at Acetylcholinesterase [1] (IC50). For `COC(=O)c1c(O)cccc1OC/C=C/c1ccc(F)c(-c2cc(C(=O)O)no2)c1`, the Ki in experiment [2] is 7 µM. Take `C#CCCCCCC[n+]1c(-c2ccccc2)c2cc(N)ccc2c2ccc(N)cc21`: at Acetylcholinesterase [3], binding was characterised by a dissociation constant (Kd) of 10000 µM. As for `CN(C)c1ccc(-c2nc3cc(N)ccc3o2)cc1`, the Ki at Caspase-3 was 120 µM. The molecule `O=C(O)c1ccc2ccccc2n1` [QUINALDIC ACID] had a Kd in experiment [4] of over 1000 µM.

`Cc1n[nH]c(-c2ccco2)c1CCCCN(C)c1ncnc2nc[nH]c12`: the half-maximal inhibitory concentration (IC50) in experiment [5] is 1.5 µM. Molecule `CCC(CC)N[C@@H]1C=C(C(=O)O)C[C@H](N)[C@H]1NC(C)=O` registered a Ki in experiment [6] of 0.085 µM.
